Results as given in patent publication US20060193853A1, “Combinations of growth-and hormone-regulating factors for the treatment of neoplasia” (priority 2002, published 2006).

System: tumor cell line Dunning R3327-G
Test: Tumor reduction in Copenhagen rats implanted with tumor cell line Dunning R3327-G (tumor weight at sacrifice)
Type: in vivo
Details: three months following the tumor line implant
Procedure: Tumor cell line Dunning R3327-G was implanted into 9-12 weeks old Copenhagen rats (with approximately 100 g of body weight each), which were subjected to different treatments with 2×10^6 cell density per animal in implant medium (RPMI 1640, serum-free in 0.5 ml), on the laxed area of the flanks. One hundred percent attachment efficiency was accomplished in the animals after 90 days.
Eight groups of ten animals each one were formed for the experiment, with Copenhagen rats as described before. […]
DES treatment was made on and off, three times a week at a rate of 1 mg/kg/day, as long as the experiment lasted; and it started once the cells were inoculated. […] (1) The expected effect (Etheoretical) in the case of double combination formulations can be calculated in case either effect is not mutually excluding (Caridad W., Guerra Bustillo, Ernesto Menendez Acuna, Rolando Barrera Morena, Esteban Egana Morales. “Estadistica”, Editorial Pueblo y Educacion, 1989), according to: Etheoretical=ET1+ET2−(ET1*ET2). […]

For `CC/C(=C(/CC)c1ccc(O)cc1)c1ccc(O)cc1` [DES, dietilestilbestrol], which “Treatment effect. Etreatment=1-(Ptreatment/Pplacebo)” value (relative to placebo mean tumor weight) is on record?
The value was 0.597.

What about the “Tumor weight (g) (Mean of ten animals)” value (tumor dried and weighed) of the same compound?
The value was 12.66 g.
